Measurements taken from PMC11177969, “Comprehensive Analyses of the Effects of the Small-Molecule Inhibitor of the UHM Domain in the Splicing Factor U2AF1 in Leukemia Cells” (Research Square, 2024).
Like-named read-outs stand apart in the source and are kept apart here.

Tests used:
[1] = target: T1, SPF45-UHM (Homo sapiens, UniProt Q96I25); assay: HTRF assay; assay type: binding; conditions: Fig. 2C; SD of 2 independent experiments in parentheses
T1 sequence (Q96I25 306-385 limits assumed): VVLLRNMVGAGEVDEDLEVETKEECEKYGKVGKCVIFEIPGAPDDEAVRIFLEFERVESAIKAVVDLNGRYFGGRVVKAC
Source text: (§1) To determine the selectivity of SF1–8 against other homologous UHM domains, we measured the IC50 values of SF1–8 to RBM39-UHM, SPF45-UHM and PUF60-UHM using the HTRF assay.[42] […] In the chemical synthesis (Scheme S1), methylation on the pyrazole group in SF1–8 can occur at the N8 or N9 position (Fig.2C). Although the NMR spectra can be used to infer the methyl group position on the pyrazole, we determined the crystal structure of a SF1–8 precursor to clearly confirm the methyl group is at N9 in SF1–8 (Fig.2C). To further probe the interaction of SF1–8 with U2AF1-UHM, we synthesized SF1–8 analogs and developed the structure activity relationship (SAR) (Fig.2C). […] A longer alkyl group was tolerated at the N8 position but not at the N9 position. […] The crystal structure of a 7c precursor experimentally determined from SCXRD again confirmed the location of the propyl group (Fig. 2C).

[2] = target: T2, PUF60-UHM (Homo sapiens, UniProt Q9UHX1); assay: HTRF assay; assay type: binding; conditions: Fig. 2C
T2 sequence (Q9UHX1 462-549 limits assumed): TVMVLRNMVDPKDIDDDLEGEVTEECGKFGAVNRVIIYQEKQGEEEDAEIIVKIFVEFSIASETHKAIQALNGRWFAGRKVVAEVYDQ
Source text: as §1

[3] = target: T3, RBM39-UHM (Homo sapiens, UniProt Q14498); assay: HTRF assay; assay type: binding; conditions: Fig. 2C; SD of 2 independent experiments in parentheses
T3 sequence (Q14498 445-508 limits assumed): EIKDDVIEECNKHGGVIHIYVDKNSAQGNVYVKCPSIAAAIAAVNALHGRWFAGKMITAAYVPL
Source text: as §1

[4] = target: T4, U2AF1-UHM (Homo sapiens, UniProt Q01081); assay: HTRF assay, inhibition of binding between U2AF1-UHM and U2AF2-ULM
T4 construct: we screened the CCG fragment library from University of Michigan against the U2AF1-UHM domain using the Thermal Shift Assay (TSA)
T4 sequence (Q01081 65-147 limits assumed): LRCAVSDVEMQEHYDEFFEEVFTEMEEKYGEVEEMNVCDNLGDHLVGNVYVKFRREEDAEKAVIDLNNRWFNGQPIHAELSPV
Source text: TSA data provided no information of the binding site in U2AF1-UHM. To identify the binding sites of both hits to U2AF1-UHM, we synthesized CCG211578 (named Hit1/SF1–8) and CCG210084 (named Hit2/9 in Fig.2C) and asked if they inhibited the binding between U2AF1-UHM and U2AF2-ULM using our previously developed HTRF assay.[42] […] The IC50 values of SF1–8 and Hit2 correlated with the ΔTm values observed in TSA. We have reported that the conserved Trp binding site in U2AF1-UHM dominated the binding affinity between U2AF2-ULM and U2AF1-UH.[42]

[5] = test system: K562-U2AF1^S34F; parameters: method as in PMID 33689684; conditions: cited from earlier work
[6] = target: T4, U2AF1-UHM; assay: Thermal Shift Assay (TSA) fragment library screening; assay type: binding; conditions: confirmatory screening in triplicate, read-out: ΔTm (melting temperature change) of U2AF1-UHM
Method: To develop a different targeting strategy, we assessed potential tractable binding sites in U2AF1 using computational analysis and determined that the UHM domain of U2AF1 was for identifying hits (Fig.S1).[42] To discover hits, we screened the CCG fragment library from University of Michigan against the U2AF1-UHM domain using the Thermal Shift Assay (TSA). An initial single concentration screening at 200 μM led to identify 149 compounds that gave positive shifts of the melting temperature (ΔTm) in U2AF1-UHM. These compounds were subject to a secondary confirmatory screening in triplicate at 200 μM.

[7] = Fig. 2C, SD of 2 independent experiments in parentheses, read-out: IC50 U2AF1

| IC50 [1] [µM] | IC50 [2] [µM] | IC50 [3] [µM] | IC50 [4, 7] [µM] | ΔTm at 200 µM [6] [°C] | IC50 ([4]; representative titration curves, Fig. 2B, read-out: IC50 against U2AF1-UHM) [µM] | SMILES | fold lower IC50 value in K562-U2AF^S34F than in K562-U2AF1^wt [5] | selectivity between K562-U2AF1^S34F and K562-U2AF1^wt [5] [fold] |
| --- | --- | --- | --- | --- | --- | --- | --- | --- |
| 362 | 621 | 386 | 34.1 |  |  | CCCn1nc(O)cc1C1(C)CCNCC1 [8c] |  |  |
| 473 | 550 | > 1000 |  |  |  | Cn1nc(O)cc1C1(C)CCNCC1 [8a] |  |  |
| > 1000 | 992 | 686 | 343 ± 62.4 | 1.5 | 328 | CC1(c2cc(O)[nH]n2)CCNCC1 [compound 9] |  |  |

Second part, the compound before the results:

| SMILES | IC50 [1] [µM] | IC50 [2] [µM] | IC50 [3] [µM] | IC50 [4, 7] [µM] | ΔTm at 200 µM [6] [°C] | IC50 ([4]; representative titration curves, Fig. 2B, read-out: IC50 against U2AF1-UHM) [µM] | fold lower IC50 value in K562-U2AF^S34F than in K562-U2AF1^wt [5] | selectivity between K562-U2AF1^S34F and K562-U2AF1^wt [5] [fold] |
| --- | --- | --- | --- | --- | --- | --- | --- | --- |
| CC(C)n1nc(C2(C)CCNCC2)cc1O [7d] | 694 | 1090 | 791 | 863 |  |  |  |  |
| CCn1nc(C2(C)CCNCC2)cc1O [7b] | 958 | 910 | > 1000 | 467 |  |  |  |  |
| CC1(C)C2CCC(CN=C(N)CSS(=O)(=O)O)C1C2 (centres unmarked) [NSC194308] |  |  |  |  |  |  | 2–3 fold | 2 |
